Experimental data: patent EP3345917A1, “ANTIPROTOZOAL COMPOUNDS” (Bacoba AG, priority 2017, dated 2018)
Non-standard residues stand in square brackets, D forms with d. Residues, ends and D or L forms follow the SMILES beside them. *: point of attachment. Hexenoyl(2E,4S-Me) = CC[C@H](C)/C=C/C(=O)*; Leu(3R-OH) = CC(C)[C@@H](O)[C@H](N)C(=O)O; NH((S)CH(Me)CH2NMe2) = C[C@@H](CN(C)C)N*; Gly(octyl) = CCCCCCCC[C@H](N)C(=O)O; Hexanoyl = CCCCCC(=O)*; Aib = CC(C)(N)C(=O)O; βAla = NCCC(=O)O

Columns and labels:
Plasmodium falciparum = test: 3H-hypoxanthine incorporation assay against Plasmodium falciparum; format: cell-based; details: In vitro inhibition, read-out: P.falc NF5
Protocol: (§1) Tests were done in triplicate.
IC50 values were calculated by linear interpolation.

[1] = tested on: Trypanosoma cruzi trypomastigote forms (Tulahuen strain); test: Intracellular Trypanosoma cruzi assay in L6-cells, beta-galactosidase/CPRG readout; format: cell-based; details: In vitro inhibition, read-out: T.cruzi.
How it was run: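 Readout was β-galactosidase cleavage of CPRG, read photometrically at 540 nm after 2–6 h colour development, giving IC50 values. Parasites: LacZ-expressing Tulahuen C2C4 strain grown in rat L6 myoblasts; run in triplicate.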

[2] = tested on: Trypanosoma brucei rhodesiense (STIB 900 strain); test: Alamar Blue assay against Trypanosoma brucei rhodesiense grown in axenic medium; format: cell-based; details: In vitro inhibition, read-out: T.b.rhod.
How it was run: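 Alamar Blue-based IC50 determination, in triplicate, on axenically grown STIB 900 trypanosomes. Melarsoprol included as reference.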

[3] = tested on: Axenically grown Leishmania donovani amastigotes (strain MHOM/ET/67/L82); test: Axenic Leishmania donovani amastigote resazurin assay; format: cell-based; details: In vitro inhibition, read-out: L.don. ax
How it was run: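 IC50 values derive from resazurin fluorescence (ex 536 nm, em 588 nm), expressed relative to the negative control, after 2-4 hours of plate development. Axenic amastigotes of strain MHOM/ET/67/L82 were used; each test run in triplicate.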

[4] = Cytotoxicity assay on L6-cells (Alamar Blue); details: rat, Cytotox L6, Cytotoxicity against rat myoblast cells (L6)
[5] = tested on: intracellular Leishmania donovani (L.don. InMac); test: Intracellular Leishmania donovani assay (L.don. InMac); format: cell-based; details: In vitro inhibition
Text: as §1

| Compound | IC50 (Plasmodium falciparum) | IC50 [1] | IC50 [2] | IC50 [3] | IC50 at 70 h [4] | IC50 [5] |
| --- | --- | --- | --- | --- | --- | --- |
| CCCCCCCC[C@H](NC(=O)[C@@H]1CCCN1C(=O)CCCCC)C(=O)N[C@H](C(=O)NC(C)(C)C(=O)N[C@@H](CC(C)C)C(=O)N[C@@H](CC(C)C)C(=O)NC(C)(C)C(=O)NC(C)(C)C(=O)NCCC(=O)N[C@@H](C)CN(C)C)[C@H](O)C(C)C [Compound 5517, (2S)-N-[(1S,2R)-1-[(1-{[(1S)-1-{[(1S)-1-{[1-({1-[(2-{[(2S)-1-(dimethylamino)propan-2-yl]carbamoyl}ethyl)carbamoyl]-1-methylethyl}carbamoyl)-1-methylethyl]carbamoyl}-3-methylbutyl]carbamoyl}-3-methylbutyl]carbamoyl}-1-methylethyl)carbamoyl]-2-hydroxy-3-methylbutyl]-2-{[(2S)-1-hexanoylpyrrolidin-2-yl]formamido}decanamide] (Hexanoyl-P[Gly(octyl)][Leu(3R-OH)][Aib]LL[Aib][Aib][βAla]-{NH((S)CH(Me)CH2NMe2)}) | 1.1 nM | 45.3 nM | 0.1 nM | 0.9 nM | 338 nM | 142 nM |
| CCCCCCCC[C@H](NC(=O)[C@@H](NC(=O)[C@@H]1CCCN1C(=O)/C=C/[C@@H](C)CC)[C@H](O)C(C)C)C(=O)NC(C)(C)C(=O)N[C@@H](CC(C)C)C(=O)N[C@@H](CC(C)C)C(=O)NC(C)(C)C(=O)NC(C)(C)C(=O)NCCC(=O)N[C@@H](C)CN(C)C [Compound 5560, (2S)-N-(1-{[(1S)-1-{[(1S)-1-{[1-({1-[(2-{[(2S)-1-(dimethylamino)propan-2-yl]carbamoyl}ethyl)carbamoyl]-1-methylethyl}carbamoyl)-1-methylethyl]carbamoyl}-3-methylbutyl]carbamoyl}-3-methylbutyl]carbamoyl}-1-methylethyl)-2-[(2S,3R)-3-hydroxy-4-methyl-2-{[(2S)-1-[(2E,4S)-4-methylhex-2-enoyl]pyrrolidin-2-yl]formamido}pentanamido]decanamide] ({Hexenoyl(2E,4S-Me)}-P[Leu(3R-OH)][Gly(octyl)][Aib]LL[Aib][Aib][βAla]-{NH((S)CH(Me)CH2NMe2)}) | 1.1 nM | 34.5 nM | 0.2 nM | 0.8 nM | 791 nM | 25.4 nM |
| CCCCCCCC[C@H](NC(=O)[C@@H]1CCCN1C(=O)/C=C/[C@@H](C)CC)C(=O)N[C@@H](CC(C)C)C(=O)NC(C)(C)C(=O)N[C@@H](CC(C)C)C(=O)N[C@@H](CC(C)C)C(=O)NC(C)(C)C(=O)NC(C)(C)C(=O)NCCC(=O)N[C@@H](C)CN(C)C [Compound 5562, (2S)-N-[(1S)-1-[(1-{[(1S)-1-{[(1S)-1-{[1-({1-[(2-{[(2S)-1-(dimethylamino)propan-2-yl]carbamoyl}ethyl)carbamoyl]-1-methylethyl}carbamoyl)-1-methylethyl]carbamoyl}-3-methylbutyl]carbamoyl}-3-methylbutyl]carbamoyl}-1-methylethyl)carbamoyl]-3-methylbutyl]-2-{[(2S)-1-[(2E,4S)-4-methylhex-2-enoyl]pyrrolidin-2-yl]formamido}decanamide] ({Hexenoyl(2E,4S-Me)}-P[Gly(octyl)]L[Aib]LL[Aib][Aib][βAla]-{NH((S)CH(Me)CH2NMe2)}) | 0.3 nM | 40.6 nM | 0.5 nM | 1.3 nM | 459 nM | 22.3 nM |
